Measured values as given in paper PMC12030165, “Bioactivity of Synthesized Trifluoromethyl Thioxanthone Analogues” (Pharmaceuticals, 2025).

What was measured:
[1] = design: method as in PMID 35200663; conditions: cell line not given; cited from earlier work
[2] = DPPH antioxidant activity assay
Procedure: To evaluate four synthesized compounds and Trolox (as a positive control), a 1 mg/mL concentration in methanol was first made from phenyl alcohol. The prepared solution was produced in concentrations of 1, 2, 3, 5, 7, 10, 20, 30, 50, and 80 µg/mL. The DPPH reagent was then diluted in 0.002% w/v methanol and combined in a […] ratio with the previously produced working concentrations. A blank solution of 100% methanol was used. All solutions were incubated at room temperature for 30 min in a dark environment. Their absorbance values were then determined using a UV-visible spectrophotometer set at a wavelength of 517 nm. The antioxidant capacity of each chemical compound fraction and Trolox were calculated using the following formula:% inhibition = ((Abs blank − Abs Sample)/Abs Blank) × 100 where:
Abs blank: Absorbance value of the control reaction containing all reagents except the synthesized compound.
Abs sample: The absorbance value of the synthesized compound [48].

HeLa cells = test system: HeLa cells; design: method as in PMID 31200286; conditions: same cell line; read-out: IC50 against HeLa cells, positive control; cited from earlier work

## C=C1C(=O)O[C@H]2/C=C(\C)CC/C=C(\C)CCC(=O)[C@]3(C)O[C@@H]3C[C@@H]12 [crassocolide N]
[1]
  cytotoxicity IC50: 4.7 µg/mL

## Cc1c(C)c2c(c(C)c1O)CCC(C)(C(=O)O)O2 (stereo not drawn) [Trolox, reference compound]
[2]; 1 µg/mL
  % inhibition of DPPH radical (radical scavenging): 30.5 ± 2.2%
[2]; 2 µg/mL
  % inhibition of DPPH radical (radical scavenging): 23.6 ± 1.3%
[2]; 3 µg/mL
  % inhibition of DPPH radical (radical scavenging): 61.4 ± 5.3%
[2]; 5 µg/mL
  % inhibition of DPPH radical (radical scavenging): 90.7± 11.3%
[2]; 7 µg/mL
  % inhibition of DPPH radical (radical scavenging): 95.3 ± 10.7%
[2]; 10 µg/mL
  % inhibition of DPPH radical (radical scavenging): 95.9± 9.5%
[2]; 20 µg/mL
  % inhibition of DPPH radical (radical scavenging): 96.7 ± 12.5%
[2]; 30 µg/mL
  % inhibition of DPPH radical (radical scavenging): 97.2 ± 8.5%
[2]; 50 µg/mL
  % inhibition of DPPH radical (radical scavenging): 98.1± 9.2%
[2]; 80 µg/mL
  % inhibition of DPPH radical (radical scavenging): 98.9± 11.8%

## COc1cccc2c1C(=O)c1c(O)c3c(c(O)c1C2=O)C[C@@](O)(C(=O)CO)C[C@@H]3O[C@H]1C[C@H](N)[C@H](O)[C@H](C)O1 [doxorubicin]
HeLa cells
  IC50: 1100 ± 15 nM
